Data reported in the NIST ThermoML archive (doi:10.1021/je300217x).

Details: Liquid, Closed cell (Static) method

FC(F)=C(F)F [tetrafluoroethene]
Details | vapor or sublimation pressure [kPa]
248.2 K | 864
248.3 K | 866
253.34 K | 1017
263 K | 1357
263.18 K | 1367
273.14 K | 1804
282.9 K | 2330
283.19 K | 2340

FC1(F)C(F)(F)C(F)(F)C1(F)F [octafluorocyclobutane]
Details | vapor or sublimation pressure [kPa]
247.9 K | 39
248.25 K | 41
248.3 K | 40
253.38 K | 51
263 K | 81
265.93 K | 92
267.92 K | 99
269.89 K | 110
272.9 K | 122
277.87 K | 148
282.9 K | 180
287.89 K | 216
292.89 K | 257
303.37 K | 362
313.09 K | 486
322.53 K | 635
335.34 K | 889
342.37 K | 1055
352.36 K | 1329
